# Experimental data reported in patent US11718622B2, “Heterocyclic adenosine receptor antagonists” (Exelixis, Inc., priority 2020, dated 2023).
# pIC50: −log10 of the molar value.
# What was measured:
# [1] = biological target: Adenosine A2B (ADORA2B) receptor (Homo sapiens (Human), UniProt P29275); test: ADORA2B Receptor Binding Assay; conditions: radioligand binding, membrane stock
# Experimental: ADORA2B Receptor Binding Assay
# 100 μL of Adenosine A2B membrane stock was dispensed into individual wells of an assay plate. 1 μL of each compound (test compounds, high control compound, low control compound) was then transferred into individual wells, followed by 100 μL of radio-labeled ligand. Plates were then sealed, and incubated at room temperature for 1 hour. Unifilter-96 GF/C filter plates were pre-soaked with 50 μL of 0.5% BSA per well for at least 30 min at room temperature. When binding assays were completed, reaction mixtures were filtered through GF/C plates using a Perkin Elmer Filtermate Harvester, and then each plate was washed 4× with cold wash buffer. Filter plates were then dried for 1 hour at 50° C. After drying, the bottom of the filter plate wells was sealed using Perkin Elmer Unifilter-96 backing seal tape. 50 μL of Perkin Elmer Microscint 20 cocktail was then added, and the top of the filter plate was then sealed using Perkin Elmer TopSeal-A sealing film. ^3H trapped on the filter was counted using a Perkin Elmer MicroBeta2 Reader. Data analysis was performed using GraphPad Prism 5 software, and the “Inhibition[% Control]” was calculated using the following equation: % Inh=(1−Background subtracted Assay value/Background subtracted HC value)*100.
# [2] = biological target: Adenosine A2a (ADORA2A) receptor (Homo sapiens (Human), UniProt P29274); test: ADORA2A Receptor Binding Assay; conditions: radioligand binding, membrane stock
# Experimental: ADORA1A and ADORA2A Receptor Binding Assay
# 2 μL of each compound (test compounds, high control compound, low control compound) was transferred into individual wells of an assay plate. Also to each individual well, 98 μL of Adenosine A1a membrane stock (for ADORA1A Receptor Binding Assay) or Adenosine A2a membrane stock (for ADORA2A Receptor Binding Assay) was dispensed, followed by 100 μL of radio-labeled ligand. Plates were then sealed, and incubated at room temperature for 1 hour (for ADORA1A Receptor Binding Assay) or 2 hours (for ADORA2A Receptor Binding Assay). Unifilter-96 GF/C filter plates were pre-soaked with 50 μL of 0.3% PEI per well for at least 30 min at room temperature. When binding assays were completed, reaction mixtures were filtered through GF/C plates using a Perkin Elmer Filtermate Harvester, and then each plate was washed 4× with cold wash buffer. Filter plates were then dried for 1 hour at 50° C. After drying, the bottom of the filter plate wells was sealed using Perkin Elmer Unifilter-96 backing seal tape. 50 μL of Perkin Elmer Microscint 20 cocktail was then added, and the top of the filter plate was then sealed using Perkin Elmer TopSeal-A sealing film. ^3H trapped on the filter was counted using a Perkin Elmer MicroBeta2 Reader. Data analysis was performed using GraphPad Prism 5 software, and the “Inhibition [% Control]” was calculated using the following equation: % Inh=(1−Background subtracted Assay value/Background subtracted HC value)*100.
# Adenosine A2B (ADORA2B) receptor, sequence (P29275 whole entry): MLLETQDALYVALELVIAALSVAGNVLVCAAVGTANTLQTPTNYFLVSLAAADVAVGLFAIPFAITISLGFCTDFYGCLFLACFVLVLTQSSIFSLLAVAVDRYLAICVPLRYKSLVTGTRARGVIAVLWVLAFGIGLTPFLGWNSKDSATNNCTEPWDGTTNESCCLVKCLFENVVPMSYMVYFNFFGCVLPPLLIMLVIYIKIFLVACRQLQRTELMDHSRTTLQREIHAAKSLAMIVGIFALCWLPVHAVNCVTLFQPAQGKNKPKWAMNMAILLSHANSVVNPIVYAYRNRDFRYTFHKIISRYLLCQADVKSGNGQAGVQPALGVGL
# Adenosine A2a (ADORA2A) receptor, sequence (P29274 whole entry): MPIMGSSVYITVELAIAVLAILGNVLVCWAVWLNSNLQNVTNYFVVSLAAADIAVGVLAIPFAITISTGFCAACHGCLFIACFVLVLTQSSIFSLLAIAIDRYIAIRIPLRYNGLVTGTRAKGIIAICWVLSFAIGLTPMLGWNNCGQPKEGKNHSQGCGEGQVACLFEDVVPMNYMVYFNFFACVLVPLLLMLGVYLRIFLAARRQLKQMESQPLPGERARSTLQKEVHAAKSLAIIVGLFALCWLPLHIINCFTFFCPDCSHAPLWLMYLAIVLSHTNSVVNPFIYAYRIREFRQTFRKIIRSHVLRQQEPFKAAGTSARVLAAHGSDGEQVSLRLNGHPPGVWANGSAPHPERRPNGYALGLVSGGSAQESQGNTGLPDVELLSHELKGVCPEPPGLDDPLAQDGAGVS
pIC50 [1],pIC50 [2],Structure (SMILES)
7.00 to 8.00,> 8.00,"Cc1nc2cc(NC(=O)NCCN3CCOCC3)nc(-c3ccco3)n2n1 [Compound 159, 1-[5-(furan-2-yl)-2-methyl-[1,2,4]triazolo[1,5-c]pyrimidin-7-yl]-3-(2-morpholin-4-ylethyl)urea]"
< 6.00,< 6.00,"Cc1nc2c(Cl)c(N)nc(-c3ccccc3Cl)n2n1 [Compound 84, 8-chloro-5-(2-chlorophenyl)-2-methyl-[1,2,4]triazolo[1,5-c]pyrimidin-7-amine]"
7.00 to 8.00,> 8.00,"CCC(=O)Nc1cn2cc(C)nc2c(-c2ccco2)n1 [Compound 220, N-[8-(furan-2-yl)-2-methylimidazo[1,2-a]pyrazin-6-yl]propanamide]"
> 8.00,> 8.00,"Cc1nc2c(-c3ccccc3)nc(N)c(Br)n2n1 [Compound 172, 5-bromo-2-methyl-8-phenyl-[1,2,4]triazolo[1,5-a]pyrazin-6-amine]"
6.00 to 7.00,> 8.00,"Cc1ccc(-c2nc(N)cc3nc(C(C)C)nn23)o1 [Compound 13, 5-(5-methylfuran-2-yl)-2-propan-2-yl-[1,2,4]triazolo[1,5-c]pyrimidin-7-amine]"
7.00 to 8.00,> 8.00,"CCC(=O)Nc1cc2nc(C)nn2c(-c2ccc(C)o2)n1 [Compound 5, N-[2-methyl-5-(5-methylfuran-2-yl)-[1,2,4]triazolo[1,5-c]pyrimidin-7-yl]propanamide]"
< 6.00,6.00 to 7.00,"CC(=O)Nc1cc2nc(C)nn2c(-c2ccoc2)n1 [Compound 72, N-[5-(furan-3-yl)-2-methyl-[1,2,4]triazolo[1,5-c]pyrimidin-7-yl]acetamide]"
6.00 to 7.00,7.00 to 8.00,"Cc1nc2c(Cl)c(N)nc(-c3ccncc3)n2n1 [Compound 79, 8-chloro-2-methyl-5-pyridin-4-yl-[1,2,4]triazolo[1,5-c]pyrimidin-7-amine]"
7.00 to 8.00,> 8.00,"Cc1cn2cc(NC(=O)C3CC3)nc(-c3ccco3)c2n1 [Compound 208, N-[8-(furan-2-yl)-2-methylimidazo[1,2-a]pyrazin-6-yl]cyclopropanecarboxamide]"
7.00 to 8.00,> 8.00,"Nc1nc(-c2ccccc2)n2nc(C(F)F)nc2c1Cl [Compound 160, 8-chloro-2-(difluoromethyl)-5-phenyl-[1,2,4]triazolo[1,5-c]pyrimidin-7-amine]"
6.00 to 7.00,6.00 to 7.00,"COc1ccc(-c2nc(NC(C)=O)cc3nc(C)nn23)cc1 [Compound 113, N-[5-(4-methoxyphenyl)-2-methyl-[1,2,4]triazolo[1,5-c]pyrimidin-7-yl]acetamide]"
< 6.00,< 6.00,"Cc1nc2cc(NC(=O)OC(C)(C)C)nc(-c3ccc(S(C)(=O)=O)cc3)n2n1 [Compound 100, tert-butyl N-[2-methyl-5-(4-methylsulfonylphenyl)-[1,2,4]triazolo[1,5-c]pyrimidin-7-yl]carbamate]"
< 6.00,6.00 to 7.00,"CC(=O)Nc1cc2nc(C3CNC3)nn2c(-c2ccco2)n1 [Compound 122, N-[2-(azetidin-3-yl)-5-(furan-2-yl)-[1,2,4]triazolo[1,5-c]pyrimidin-7-yl]acetamide]"
6.00 to 7.00,> 8.00,"CCc1nc2cc(N)nc(-c3ccc(C)o3)n2n1 [Compound 7, 2-ethyl-5-(5-methylfuran-2-yl)-[1,2,4]triazolo[1,5-c]pyrimidin-7-amine]"
7.00 to 8.00,> 8.00,"Cc1nc2cc(NC(=O)C3CN(C)C3)nc(-c3ccc(C)o3)n2n1 [Compound 18, 1-methyl-N-[2-methyl-5-(5-methylfuran-2-yl)-[1,2,4]triazolo[1,5-c]pyrimidin-7-yl]azetidine-3-carboxamide]"
7.00 to 8.00,> 8.00,"CC(=O)Nc1cc2nc(CF)nn2c(-c2ccco2)n1 [Compound 139, N-[2-(fluoromethyl)-5-(furan-2-yl)-[1,2,4]triazolo[1,5-c]pyrimidin-7-yl]acetamide]"

pIC50 [1],pIC50 [2],Structure (SMILES)
> 8.00,> 8.00,"O=C(Nc1cc2nc(C(F)(F)F)nn2c(-c2ccco2)n1)C1CC1 [Compound 68, N-[5-(furan-2-yl)-2-(trifluoromethyl)-[1,2,4]triazolo[1,5-c]pyrimidin-7-yl]cyclopropanecarboxamide]"
< 6.00,< 6.00,"Cc1nc2cc(NC(=O)C3CC3)nc(-c3ccc(S(N)(=O)=O)cc3)n2n1 [Compound 114, N-[2-methyl-5-(4-sulfamoylphenyl)-[1,2,4]triazolo[1,5-c]pyrimidin-7-yl]cyclopropanecarboxamide]"
7.00 to 8.00,> 8.00,"CCc1nc2cc(NC(=O)C3CC3)nc(-c3ccc(C)o3)n2n1 [Compound 8, N-[2-ethyl-5-(5-methylfuran-2-yl)-[1,2,4]triazolo[1,5-c]pyrimidin-7-yl]cyclopropanecarboxamide]"
6.00 to 7.00,7.00 to 8.00,"COC(=O)Nc1cn2cc(C)nc2c(-c2ccco2)n1 [Compound 218, methyl N-[8-(furan-2-yl)-2-methylimidazo[1,2-a]pyrazin-6-yl]carbamate]"
> 8.00,> 8.00,"Cc1ccc(-c2nc(NC(=O)C3CC3)cn3nc(Br)nc23)o1 [Compound 188, N-[2-bromo-8-(5-methylfuran-2-yl)-[1,2,4]triazolo[1,5-a]pyrazin-6-yl]cyclopropanecarboxamide]"
7.00 to 8.00,> 8.00,"O=C(Nc1cc2nc(C3COC3)nn2c(-c2ccco2)n1)C1CC1 [Compound 92, N-[5-(furan-2-yl)-2-(oxetan-3-yl)-[1,2,4]triazolo[1,5-c]pyrimidin-7-yl]cyclopropanecarboxamide]"
7.00 to 8.00,> 8.00,"Cc1nc2cc(NC(=O)C3CCC3)nc(-c3ccc(C)o3)n2n1 [Compound 10, N-[2-methyl-5-(5-methylfuran-2-yl)-[1,2,4]triazolo[1,5-c]pyrimidin-7-yl]cyclobutanecarboxamide]"
< 6.00,< 6.00,"Cc1nc2cc(NC(=O)OC(C)(C)C)nc(-c3ccc(S(=O)(=O)N(C)C)cc3)n2n1 [Compound 118, tert-butyl N-[5-[4-(dimethylsulfamoyl)phenyl]-2-methyl-[1,2,4]triazolo[1,5-c]pyrimidin-7-yl]carbamate]"
< 6.00,< 6.00,"Cc1nc2cc(NC(=O)C3CC3)nc(-c3ccc(S(=O)(=O)N(C)C)cc3)n2n1 [Compound 116, N-[5-[4-(dimethylsulfamoyl)phenyl]-2-methyl-[1,2,4]triazolo[1,5-c]pyrimidin-7-yl]cyclopropanecarboxamide]"
7.00 to 8.00,> 8.00,"CC(=O)Nc1cc2nc(C3CCCC3)nn2c(-c2ccc(C)o2)n1 [Compound 65, N-[2-cyclopentyl-5-(5-methylfuran-2-yl)-[1,2,4]triazolo[1,5-c]pyrimidin-7-yl]acetamide]"
7.00 to 8.00,7.00 to 8.00,"CCCNC(=O)Nc1cc2nc(C)nn2c(-c2ccco2)n1 [Compound 154, 1-[5-(furan-2-yl)-2-methyl-[1,2,4]triazolo[1,5-c]pyrimidin-7-yl]-3-propylurea]"
< 6.00,< 6.00,"Cc1nc2c3nc(C(F)(F)F)[nH]c3nc(-c3ccco3)n2n1 [Compound 165, 5-(furan-2-yl)-8-methyl-2-(trifluoromethyl)-3H-[1,2,4]triazolo[5,1-f]purine]"
> 8.00,> 8.00,"CC(C)c1nc2c(-c3ccco3)nc(NC(=O)C3CC3)cn2n1 [Compound 181, N-[8-(furan-2-yl)-2-propan-2-yl-[1,2,4]triazolo[1,5-a]pyrazin-6-yl]cyclopropanecarboxamide]"
> 8.00,> 8.00,"CC(=O)Nc1cn2nc(C)nc2c(-c2ccc(C)o2)n1 [Compound 174, N-[2-methyl-8-(5-methylfuran-2-yl)-[1,2,4]triazolo[1,5-a]pyrazin-6-yl]acetamide]"
7.00 to 8.00,7.00 to 8.00,"Cc1nc2c3sc(=O)[nH]c3nc(-c3ccc(C)o3)n2n1 [Compound 27, 4-methyl-7-(5-methylfuran-2-yl)-12-thia-3,5,6,8,10-pentazatricyclo[7.3.0.0^2,6]dodeca-1(9),2,4,7-tetraen-l1-one]"
> 8.00,> 8.00,"Cc1ccc(-c2nc(NC(=O)C3CC3)cc3nc(C(C)C)nn23)o1 [Compound 12, N-[5-(5-methylfuran-2-yl)-2-propan-2-yl-[1,2,4]triazolo[1,5-c]pyrimidin-7-yl]cyclopropanecarboxamide]"
